Results as given in US11590164B2, “Topical antimicrobial formulations containing monovalent copper ions and systems for generating monovalent copper ions” (priority 2016, dated 2023).

Tests used:
[1] = tested on: E. coli MG 1655; assay: Petri dish technique, LB agar with ascorbic acid and CuSO4 covered by oil; type: cell-based, Escherichia coli; settings: for Vitality of E. coli MG 1655: 24 h
Method: (§1) As control groups, bacteria were incubated under the same conditions without ascorbic acid, or without CuSO4. In this series of experiments ascorbic acid acted as the reducing agent according to the following reaction: 2Cu^2++ascorbic acid→2Cu^++dehydro ascorbic acid (2) The viability of bacteria was detected by the presence or absence of colonies.
The experiment was repeated using a different reducing agent (ascorbic acid instead of metal copper with acetonitrile) and different technique of growing bacteria on Petri dishes with LB agar. The ascorbic acid embedded in the agar reduces copper as was shown in Equation 2.

[2] = tested on: E. coli; assay: Syringes technique, anaerobic incubation of E. coli with copper ions (vitality / MIC); type: cell-based, Escherichia coli
Method: (§2) Syringes technique: Bacteria cells were incubated at room temperature under anaerobic conditions in LB Bruce growth substance syringes. To ensure anaerobic conditions, Argon gas (UHP) was bubbled through a sterile filter into a syringe filled with a growth substance. Cu^1+ was formed in situ, the process was started with de-aerating the aqueous solutions containing a mixture of CuSO4 as the source for Cu^2+ ions, metallic copper and Acetonitrile as a stabilizing ligand, prior to microorganisms insertion, according to the following reaction:
One must notice that each Cu^2+ results in two Cu^1+ ions.
(§3) Reference bacteria were incubated under the same condition in a growth substance containing: Metallic copper (4×2×0.1 cm), Acetonitrile, CuSO4 or AgNO3.
(§4) Bacteria count was measured at time intervals using a series of dilutions, and colonies count on LB Agar was incubated at 37° C.
The vitality of Escherichia coli, Staphylococcus aureus (bacteria) and Saccharomyces cerevisiae (yeast) was tested in anaerobic conditions using syringe technique and Petri dish technique.
The MIC of Cu^1+ and Cu^2+ was measured by using four syringes with decreasing concentration of the copper ions from 8 to 2 mM.
MIC of Cu^1+ found to be around 4 mM where the MIC of Cu^2+ was between 6 mM and 8 mM.

[3] = tested on: Escherichia coli strain MG1655; assay: Disc diffusion antibiotic sensitivity test; type: cell-based; settings: for Estimate of the sterile area beyond the disk: aerobic, 37° C., 24 h incubation, 6 mm disk
Method: 1. Introduction: • The antibacterial effect was measured by an agar disk diffusion method. Escherichia coli strain MG1655 was used as a model organism. Whatman's 6 mm disks were used. The incubation of Petri dishes (with disks) was done in aerobic conditions, at 37° C. After 24 h incubation, the radiuses of sterile zones on agar were measured.
2.1 Preparation of bacterial suspension • 100 μl of bacterial suspension (containing 10^4-10^5 bacterial cells per plate) was used for testing. Cells of E. coli MG1655 were grown overnight as a starter on LB (Luria broth) media at 37° C. with a shaker. After 12-18 hhours incubation, 100 μL suspension were added to 9.9 mL of fresh LB media. Bacterial cells designated for testing were grown in fresh LB at 37° C. with a shaker for 2-3 h to final OD (600 nm) 0.2-0.4. This cell suspension was diluted by a factor of 100 using 0.9% NaCl, and 100 μL of the diluted suspension was distributed on agar surface before adding a disk.
2.2 Preparation of Petri dishes • LB agar was prepared according to a standard procedure, autoclaved and stored afterwards up to 3 h at 55° C. The needed substances (like ascorbic acid) were added into agar before pouring into dishes. 15 ml agar was added to each 90 mm Petri dish. Dishes were dried for at least 1 h in a biosafety cabinet by sterile air flow.
2.3 Formulation application • To the preliminary dried dishes (a described in 2.2) a freshly prepared bacterial culture was added (as described in 2.1). Immediately after absorption of the suspension into the agar, a disk was placed at the center of the dish. In case where metallic copper was tested, it was placed first in the form of a small circular wire at the dish center and pressed into the agar, and covered by a disk afterwards. 10 μl of a Cu^2+ solution was placed on the disk.
2.4 Measurement of the sterile zone size • All dishes after 24 h incubation (as described in 2.1) were photographed and the images are analyzed. The absolute size of the sterile zones was estimated in comparison with the disk size (6 mm).
The results were presented as sterile area in mm^2 (FIG. 5 and Table 2) or as radiuses in mm (FIGS. 7-10) of the sterile zones on agar.

[4] = tested on: E. coli; assay: Kinetics of bactericidal effect (time-kill curve), syringes technique; type: cell-based, Escherichia coli
Method: as §2, §3, §4
Because of the chemical similarity of copper and silver as well as their clinical use as antibacterial agents, their antibacterial effect over time was compared. The survival of test bacteria in each syringe was sampled in time intervals of 1, 20, 40 and 85 hours from inoculation. Time-kill curve was constructed by plotting the viable cell count of bacteria (Δ log 10 cfu/ml) over time (FIG. 1).

[5] = tested on: S. aureus; assay: Petri dish technique, LB agar with ascorbic acid; type: cell-based, Staphylococcus aureus; settings: 24 h
Method: as §1, with “Petri dish technique: Bacteria were incubated at 37° C. in Petri dish with LB Agar containing 20 mM ascorbic acid and 0.05-3.5 mM CuSO4 covered by oil, to prevent air oxygen penetration. As” for “As”
The MIC of Cu^1+ is measured by using Petri dishes with LB agar. The ascorbic acid embedded in the agar reduces copper as was shown in Equation 2.

[6] = tested on: Staphylococcus aureus; assay: Growth kinetics in anaerobic conditions, syringe technique; type: cell-based
Method: as §2, §3, §4
When comparing with FIG. 2 it seems that the difference between the effect of Cu^1+ and Cu^2+ is more pronounced in gram (+) bacteria than in gram(−).

[7] = tested on: Saccharomyces cerevisiae; assay: Viable cell count over time, syringes technique; type: cell-based
[8] = 4 mM ion, 24 h incubation, 0.5% (v/v) acetonitrile

In the case of `O=C1O[C@H]([C@@H](O)CO)C(O)=C1O` [Ascorbic acid, ascorbic acid, reference compound], the “Vitality of E. coli MG 1655” value ([1]; Ascorbic acid 20 mM, CuSO4 0 mM) is reported as “++ (a fully covered plate, estimated as 2×10^7 cfu/ml)”.
`CC#N` [acetonitrile] was tested, and the “minimal effective concentration as stabilizing ligand” value ([2]; preliminary tests, equals 0.5% V/V) was 0.1 M.
With “copper(II) gluconate [copper (II) gluconate]” the “minimal recommended concentration of copper (II) gluconate” value ([3]; in emulsifying base ointment with ascorbyl palmitate and 2% copper powder) was 1.25 % w/w.
In the case of `[Ag+]` [Ag^1+, reference compound], the viable cells ([4]; after 85 hours) is reported as “no viable cells were found” and the “Estimate of the sterile area beyond the disk” value (“Estimate” below) [3] is reported as 27.1 mm^2.
With `[Cu+]` [Cu^1+] the “antibacterial potency compared with 8 mM and 16 mM Ag^+” value ([4]; 8 mM, 1 h incubation) was “more potent antibacterial agent”, the viable bacteria cells ([4]; 20 hours after inoculation) was “no viable bacteria cell was found at all” and the “reduction of the initial bacteria inoculums” value ([4]; after 1 h of incubation, anaerobic) was 7 log cfu/ml. The “live bacteria remaining in the syringe” value ([4]; after 85 hours) was 1 log cfu/ml, the “Estimate” value [3] was 359.3 mm^2 and the “Estimate” value ([3]; listed as Cu^2+) was 25.9 mm^2. For the same compound, the “Estimate” value ([3]; listed as Cu^+2) was 25.9 mm^2, the “improvement in the biocidal effect compared with Ag^1+ and Cu^2+” value ([3]; disk diffusion method) was “more than 10 times” and the “presence or absence of E. coli colonies” value ([2]; 2 mM ion, 24 h incubation, 0.5% (v/v) acetonitrile) was “++ (a fully covered plate, estimated as 2×10^7 cfu/ml)”. For the same compound, the “number of colonies on the plate” value [2, 8] was 107 colonies, the “presence or absence of E. coli colonies” value [2, 8] was “++ (a fully covered plate, estimated as 2×10^7 cfu/ml)” and the “presence or absence of E. coli colonies” value ([2]; 6 mM ion, 24 h incubation, 0.5% (v/v) acetonitrile) was “−”. The “presence or absence of E. coli colonies” value ([2]; 6 mM ion, 24 h incubation, 0.5% (v/v) acetonitrile, listed as Cu^+2) was “+ (partially covered plate but still uncountable, estimated as 1×10^4 cfu/ml)”, the “presence or absence of E. coli colonies” value ([2]; 8 mM ion, 24 h incubation, 0.5% (v/v) acetonitrile) was “−” and the MIC ([2]; 24 h incubation, 0.5% (v/v) acetonitrile, syringes) was “around 4 mM”. For the same compound, the S. aureus vitality ([5]; 0.05 mM with ascorbic acid 20 mM) was “++ (a fully covered plate, estimated as 2×10^7 cfu/ml)”, the “S. aureus vitality, number of colonies” value ([5]; 0.1 mM with ascorbic acid 20 mM) was 45 and the S. aureus vitality ([5]; 0.3 mM with ascorbic acid 20 mM) was “−”. The “bactericidal effect of reduced copper ions relative to Cu^2+” value ([1]; 24 h after incubation) was “eight times higher”, the bacteriostatic effect [6] was “very little bacteriostatic effect” and the “incubation time to depletion of bacterial count” value [6] was no more than 1 h. For the same compound, the “susceptibility of the yeast compared with the bacteria studied” value [7] was “more susceptible”.
`O=S(=O)([O-])[O-].[Cu+2]` [CuSO4] was tested, and the “Vitality of E. coli MG 1655” value ([1]; Ascorbic acid 0 mM, CuSO4 3.0 mM) was “++ (a fully covered plate, estimated as 2×10^7 cfu/ml)”, the “Vitality of E. coli MG 1655” value ([1]; Ascorbic acid 0 mM, CuSO4 4.0 mM) was “−” and the “Vitality of E. coli MG 1655” value ([1]; Ascorbic acid 20 mM, CuSO4 0.01 mM) was “++ (a fully covered plate, estimated as 2×10^7 cfu/ml)”. For the same compound, the “Vitality of E. coli MG 1655” value ([1]; Ascorbic acid 20 mM, CuSO4 0.05 mM) was “−”.
